# Laboratory results as given in US7935699B2, “Pyrazole glucokinase activators” (Hoffmann-La Roche Inc., priority 2006, dated 2011).
# Columns and labels:
# [1] = biological target: T1, Recombinant human liver GK1 (GST-GK) (Homo sapiens, UniProt P35557); test: Glucokinase in vitro assay (G6PDH-coupled, NADH at OD340); assay type: biochemical; settings: for SC1.5 (concentration of activator that produced a 50% increase in the activity of GK): 25° C., 5 mM D-glucose, 10% DMSO, GST-GK; for glucokinase activation (in words): qualitative statement
# T1 construct: made in house; host or cells: E. coli
# T1 sequence (P35557 1-466 isoform P35557-2): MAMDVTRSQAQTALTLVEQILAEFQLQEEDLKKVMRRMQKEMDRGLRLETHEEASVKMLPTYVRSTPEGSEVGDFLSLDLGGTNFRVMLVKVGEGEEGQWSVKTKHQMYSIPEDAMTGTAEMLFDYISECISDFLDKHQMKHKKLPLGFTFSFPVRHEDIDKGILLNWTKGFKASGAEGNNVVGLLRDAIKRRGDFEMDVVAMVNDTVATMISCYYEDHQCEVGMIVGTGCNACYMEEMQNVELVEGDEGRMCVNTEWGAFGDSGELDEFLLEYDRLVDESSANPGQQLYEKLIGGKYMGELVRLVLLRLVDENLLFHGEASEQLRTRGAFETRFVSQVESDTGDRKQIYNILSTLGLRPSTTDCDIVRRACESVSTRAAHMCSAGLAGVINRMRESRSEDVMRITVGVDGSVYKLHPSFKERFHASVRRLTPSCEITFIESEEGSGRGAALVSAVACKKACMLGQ
# Description: Glucokinase In Vitro Assay Protocol: Glucokinase (GK) was assayed by coupling the production of glucose-6-phosphate to the generation of NADH with glucose-6-phosphate dehydrogenase (G6PDH, 0.75-1 kunits/mg; Boehringer Mannheim, Indianapolis, Ind.) from Leuconostoc mesenteroides as the coupling enzyme (Scheme 2).
# Recombinant human liver GK1 was expressed in E. coli as a glutathione S-transferase fusion protein (GST-GK) [Liang et al, 1995] and was purified by chromatography over a glutathione-Sepharose 4B affinity column using the procedure provided by the manufacturer (Amersham Pharmacia Biotech, Piscataway, N.J.).
# The assay was conducted at 25° C. in a flat bottom 96-well tissue culture plate from Costar (Cambridge, Mass.) with a final incubation volume of 120 μL. The incubation reaction contained the following: 25 mM Hepes buffer (pH 7.1), 25 mM KCl, 5 mM D-glucose, 1 mM ATP, 1.8 mM NAD, 2 mM MgCl2, 1 μM sorbitol-6-phosphate, 1 mM dithiothreitol, test drug or 10% DMSO, 1.8 unit/ml G6PDH, and GK (see below). All organic reagents were >98% pure and were from Boehringer Mannheim with the exceptions of D-glucose and Hepes which were from Sigma Chemical Co, St Louis, Mo. Test compounds were dissolved in DMSO and were added to the incubation reaction minus GST-GK in a volume of 12 μL to yield a final DMSO concentration of 10%. This mix was pre-incubated in the temperature controlled chamber of a SPECTRAmax 250 microplate spectrophotometer (Molecular Devices Corporation, Sunnyvale, Calif.) for 10 minutes to allow temperature equilibrium and then the reaction was started by the addition of 20 μL GST-GK.
# After addition of enzyme, the increase in optical density (OD) at 340 nm was monitored over a 10 minute incubation period as a measure of GK activity. Sufficient GST-GK was added to produce an increase in OD340 of 0.08 to 0.1 units over the 10 minute incubation period in wells containing 10% DMSO but no test compound. Preliminary experiments established that the GK reaction was linear over this period of time even in the presence of activators that produced a 5-fold increase in GK activity. The GK activity in control wells was compared with the activity in wells containing test GK activators, and the concentration of activator that produced a 50% increase in the activity of GK, i.e., the SC1.5, was calculated.
# [2] = test system: Diet-Induced Obese (DIO) C57BL/6J mice; test: Glucokinase activator in vivo screen, blood glucose in DIO mice; settings: Mus musculus; 2 hours post 25 mg/kg oral dose in DIO mice, vs control; read-out: % gluc @ 2 H (% glucose lowering vs control)
# Description: Glucokinase Activator in vivo Screen Protocol in Lean and Diet Induced Obese Mice: Lean or Diet-Induced Obese (DIO) C57BL/6J mice were orally dosed via gavage with Glucokinase (GK) activator (50 mg/kg body weight for lean mice, 25 mg/kg body weight for DIO mice) following a two hour fasting period. Blood glucose determinations were made four times during the six hour post-dose study period.
# C57Bl/6J mice were obtained from Jackson Laboratory (Bar Harbor, Me.) and were maintained in a light-dark cycle with lights on from 0600-1800 hr. For studies in lean mice, the mice were received at age six weeks and given ad libitum access to control diet (LabDiet 5001 chow, PMI Nutrition, Brentwood, Mo.), and were at least age 11 weeks at the time of study. For studies in the DIO model, the mice were received at age five weeks and given ad libitum access to Bio-Serv F3282 High Fat Diet (Frenchtown, N.J.), and were at least age 16 weeks at the time of study. The experiments were conducted during the light phase of the light-dark cycle. Mice (n=6) are weighed and fasted for a two hour period prior to oral treatment. GK activators are formulated in Gelucire vehicle (Ethanol:Gelucire44/14:PEG400q.s. 4:66:30 v/w/v. For studies in lean mice, the mice were dosed orally with 5.0 μL per gram of body weight with 5 ml/kg×10.0 mg/ml formulation to equal a 50 mg/kg dose. For studies in DIO mice, the mice were dosed orally with 5.0 μL per gram of body weight with […] formulation to equal a 25 mg/kg dose. Immediately prior to dosing, a pre-dose (time zero) blood glucose reading was acquired by snipping off a small portion of the animal's tail (˜1 mm) and collecting 15 μL blood into a heparinized capillary tube for analysis. Following GK activator administration, additional blood glucose readings were taken at 2, 4 and 6 hours post dose from the same tail wound. Results were interpreted by comparing the mean blood glucose values of six vehicle treated mice with six GK activator treated mice over the six hour study duration.
Compound,SC1.5 (concentration of activator that produced a 50% increase in the activity of GK) [1],glucokinase activation (in words) [1],change in vivo at 25 mg/kg [2]
"CS(=O)(=O)c1ccc([C@@H](CC2CCCC2)C(=O)Nc2cc[nH]n2)cc1Cl [Example 2, 2(R)-(3-Chloro-4-methanesulfonyl-phenyl)-3-cyclopentyl-N-(1H-pyrazol-3-yl)-propionamide]",0.28 µM,,
"CS(=O)(=O)c1ccc([C@@H](CC2CCCC2)C(=O)Nc2ccn(CC(=O)N3CCOCC3)n2)cc1Cl [Example 7, 2(R)-(3-Chloro-4-methanesulfonyl-phenyl)-3-cyclopentyl-N-[1-(2-morpholin-4-yl-2-oxo-ethyl)-1H-pyrazol-3-yl]-propionamide]",,,-15.3%
"CC(C)(C)OC(=O)CCn1ccc(NC(=O)[C@H](CC2CCCC2)c2ccc(S(C)(=O)=O)c(Cl)c2)n1 [Example 8, 3-{3-[2(R)-(3-Chloro-4-methanesulfonyl-phenyl)-3-cyclopentyl-propionylamino]-pyrazol-1-yl}-propionic acid tert-butyl ester]",0.2 µM,,
"CCCNC(=O)CCn1ccc(NC(=O)[C@H](CC2CCCC2)c2ccc(S(C)(=O)=O)c(Cl)c2)n1 [Example 11, 2(R)-(3-Chloro-4-methanesulfonyl-phenyl)-3-cyclopentyl-N-[1-(2-propylcarbamoyl-ethyl)-1H-pyrazol-3-yl]-propionamide]",0.45 µM,,
"CCS(=O)(=O)n1ccc(NC(=O)[C@H](CC2CCCC2)c2ccc(S(C)(=O)=O)c(Cl)c2)n1 [Example 33, 2(R)-(3-Chloro-4-methanesulfonyl-phenyl)-3-cyclopentyl-N-(1-ethanesulfonyl-1H-pyrazol-3-yl)-propionamide]",,,-9.8%
"CS(=O)(=O)c1ccc([C@@H](CC2CCCC2)C(=O)Nc2ccn(C[C@@H](O)CO)n2)cc1Cl [Example 35, 2-(R)-(3-Chloro-4-methanesulfonyl-phenyl)-3-cyclopentyl-N-[1-((R)-2,3-dihydroxy-propyl)-1H-pyrazol-3-yl]-propionamide]",,,-33.2%
"CS(=O)(=O)c1ccc([C@@H](CC2CCCC2)C(=O)Nc2ccn(CC3(O)CC3)n2)cc1Cl [Example 73, 2-(R)-(3-Chloro-4-methanesulfonyl-phenyl)-3-cyclopentyl-N-[1-(1-hydroxy-cyclopropylmethyl)-1H-pyrazol-3-yl]-propionamide]",,,-48.5%
"Cc1cc([C@@H](CC2CCCC2)C(=O)Nc2ccn(CCO)n2)ccc1S(C)(=O)=O [Example 78, 3-Cyclopentyl-N-[1-(2-hydroxy-ethyl)-1H-pyrazol-3-yl]-2(R)-(4-methanesulfonyl-3-methyl-phenyl)-propionamide]",,,-26.7%
"COCCn1ccc(NC(=O)[C@H](CC2CCCC2)c2ccc(S(C)(=O)=O)c(C)c2)n1 [Example 81, 3-Cyclopentyl-2(R)-(4-methanesulfonyl-3-methyl-phenyl)-N-[1-(2-methoxy-ethyl)-1H-pyrazol-3-yl]-propionamide]",,,-31.4%
"Cc1cc([C@@H](CC2CCCC2)C(=O)Nc2ccn(CCCO)n2)ccc1S(C)(=O)=O [Example 82, 3-Cyclopentyl-N-[1-(3-hydroxy-propyl)-1H-pyrazol-3-yl]-2(R)-(4-methanesulfonyl-3-methyl-phenyl)-propionamide]",,,-38.3%

# Continued, in another order:
SC1.5 (concentration of activator that produced a 50% increase in the activity of GK) [1],glucokinase activation (in words) [1],Compound,change in vivo at 25 mg/kg [2]
5.3 µM,active,"CS(=O)(=O)c1ccc([C@@H](CC2CCOCC2)C(=O)Nc2ccn(CCO)n2)cc1Cl (single isomer, unassigned) [Example 76]",
,active,"CC(C)(O)Cn1ccc(NC(=O)[C@H](CC2CCOCC2)c2ccc(Cl)c(Cl)c2)n1 (single isomer, unassigned) [Example 88]",
,active,"CC(C)(O)Cn1ccc(NC(=O)[C@H](CC2COC2)c2ccc(S(C)(=O)=O)c(Cl)c2)n1 (single isomer, unassigned) [Example 92]",
0.083 µM,,"CS(=O)(=O)c1ccc([C@@H](CC2CCCC2)C(=O)Nc2ccn(Cc3ccccc3)n2)cc1Cl [Example 24, N-(1-Benzyl-1H-pyrazol-3-yl)-2(R)-(3-chloro-4-methanesulfonyl-phenyl)-3-cyclopentyl-propionamide]",
0.061 µM,,"COC(=O)c1ccc(Cn2ccc(NC(=O)[C@H](CC3CCCC3)c3ccc(S(C)(=O)=O)c(Cl)c3)n2)cc1 [Example 44, 4-{3-[2-(R)-(3-Chloro-4-methanesulfonyl-phenyl)-3-cyclopentyl-propionylamino]-pyrazol-1-ylmethyl}-benzoic acid methyl ester]",
0.03 µM,,"COCCCNC(=O)c1ccc(Cn2ccc(NC(=O)[C@H](CC3CCCC3)c3ccc(S(C)(=O)=O)c(Cl)c3)n2)cc1 [Example 47, 4-{3-[2-(R)-(3-Chloro-4-methanesulfonyl-phenyl)-3-cyclopentyl-propionylamino]-pyrazol-1-ylmethyl}-N-(3-methoxy-propyl)-benzamide]",
0.13 µM,,"CC(C)n1ccc(NC(=O)[C@H](CC2CCCC2)c2ccc(S(C)(=O)=O)c(Cl)c2)n1 [Example 56, 2-(R)(3-Chloro-4-methanesulfonyl-phenyl)-3-cyclopentyl-N-(1-isopropyl-1H-pyrazol-3-yl)-propionamide]",
1.433 µM,,"O=C(Nc1ccn(CCO)n1)[C@H](CC1CCCC1)c1cccc(C(F)(F)F)c1 [Example 79, 3-Cyclopentyl-N-[1-(2-hydroxy-ethyl)-1H-pyrazol-3-yl]-2(R)-(3-trifluoromethyl-phenyl)-propionamide]",
,active,"CC(C)(O)Cn1ccc(NC(=O)[C@H](CC2CCOCC2)c2ccc(S(C)(=O)=O)c(Cl)c2)n1 [Example 90, 2(R)-(3-Chloro-4-methanesulfonyl-phenyl)-N-[1-(2-hydroxy-2-methyl-propyl)-1H-pyrazol-3-yl]-3-(tetrahydro-pyran-4-yl)-propionamide]",
